Ten compounds from patent US20240158446A1, “CYCLIC COMPOUND HAVING SELECTIVE INHIBITORY ACTION ON KRAS OVER HRAS AND NRAS” (CHUGAI SEIYAKU KABUSHIKI KAISHA, priority 2021, published 2024) can be followed below.

Where two headings read alike, the source gives them in different places.

The target in test [1] is GDP-bound KRAS wild-type protein (Homo sapiens, UniProt P01116). Description: Binding to KRAS by surface plasmon resonance (SPR), Single Cycle Kinetics. The conditions noted are these: GDP-bound KRAS wild-type protein, read-out: KRAS KD. On the technique in general: In SPR one partner is held on a chip, and binding of the other changes the refractive index at the surface.
For test [2], the target named is GDP-bound NRAS wild-type protein (Homo sapiens, UniProt P01111). Description: Binding to NRAS by surface plasmon resonance (SPR), Single Cycle Kinetics. The conditions noted are these: for NRAS/KRAS (ratio of KD value with respect to GDP-bound NRAS wild-type protein to KD value with respect to KRAS): SPR KD ratio NRAS/KRAS, class symbols; for NRAS/KRAS (ratio of KD value for NRAS to KD value for KRAS): SPR, GDP-bound NRAS wild-type protein vs GDP-bound KRAS wild-type protein.

Test [3] addresses GDP-bound HRAS wild-type protein (Homo sapiens, UniProt P01112). Description: Binding to HRAS by surface plasmon resonance (SPR), Single Cycle Kinetics. To be noted: for HRAS/KRAS (ratio of KD value with respect to GDP-bound HRAS wild-type protein to KD value with respect to KRAS): SPR KD ratio HRAS/KRAS, class symbols; for HRAS/KRAS (ratio of KD value for HRAS to KD value for KRAS): SPR, GDP-bound HRAS wild-type protein vs GDP-bound KRAS wild-type protein.

Where [4] appears, read: SPR Single Cycle Kinetics, 1:1 binding model.

Sequence of GDP-bound HRAS wild-type protein (P01112 whole entry): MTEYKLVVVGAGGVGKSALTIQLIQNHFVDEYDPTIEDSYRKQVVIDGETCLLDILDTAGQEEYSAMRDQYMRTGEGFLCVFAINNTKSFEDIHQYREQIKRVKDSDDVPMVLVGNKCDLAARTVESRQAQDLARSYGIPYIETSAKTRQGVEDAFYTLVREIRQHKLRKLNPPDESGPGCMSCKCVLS
Sequence of GDP-bound KRAS wild-type protein (P01116 whole entry): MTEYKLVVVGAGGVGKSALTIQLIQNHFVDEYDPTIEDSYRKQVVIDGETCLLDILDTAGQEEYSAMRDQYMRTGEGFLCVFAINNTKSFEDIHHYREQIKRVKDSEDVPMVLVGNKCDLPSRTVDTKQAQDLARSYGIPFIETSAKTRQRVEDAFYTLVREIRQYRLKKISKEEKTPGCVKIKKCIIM
Sequence of GDP-bound NRAS wild-type protein (P01111 whole entry): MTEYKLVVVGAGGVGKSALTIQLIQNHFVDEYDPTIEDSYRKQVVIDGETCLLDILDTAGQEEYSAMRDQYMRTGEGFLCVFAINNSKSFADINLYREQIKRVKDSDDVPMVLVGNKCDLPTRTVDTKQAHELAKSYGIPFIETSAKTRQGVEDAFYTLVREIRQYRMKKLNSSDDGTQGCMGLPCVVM

Take `CCO[C@@H]1C[C@H]2C(=O)NC3(CCC3)C(=O)N(C)[C@@H](C(CC)CC)C(=O)N(C)[C@H](C(=O)N3CCCC3)CC(=O)N(C)[C@H]3CCC/C=C/c4ccc(cc4)C[C@@H](C(=O)N(C)CC(=O)N[C@@H](CCc4cc(F)c(C(F)(F)F)c(F)c4)C(=O)N2C1)N1CC/C=C\C[C@@H](C1=O)N(C)C(=O)CN(C1CC1)C(=O)[C@H]([C@@H](C)CC)NC3=O` [PP2957]: the Kd in test [1] (setting [4]) was 0.23 nM. The “NRAS/KRAS (ratio of KD value with respect to GDP-bound NRAS wild-type protein to KD value with respect to KRAS)” value in test [2] is listed as “AA (a compound having 20 or more is denoted as AA)”. The “HRAS/KRAS (ratio of KD value with respect to GDP-bound HRAS wild-type protein to KD value with respect to KRAS)” value in test [3] was “A (a compound having 10 or more and less than 20 is denoted as A)”.
As to `CCC(CC)[C@H]1C(=O)N(C)[C@H](C(=O)N(C)C)CC(=O)N(C)[C@@H](COC)C(=O)N[C@@H]([C@@H](C)CC)C(=O)N(C)CC(=O)N(C)[C@H]2C/C=C\CCN(C2=O)[C@@H](Cc2ccc(C(F)(F)F)cc2)C(=O)N(C)CC(=O)N[C@@H](CCc2cc(F)c(C(F)(F)F)c(F)c2)C(=O)N2CC3(CC3)C[C@H]2C(=O)NC2(CC(C)(C)C2)C(=O)N1C` [PP2961], in test [1] (setting [4]), the Kd turned out to be 0.36 nM. In test [2], the “NRAS/KRAS (ratio of KD value with respect to GDP-bound NRAS wild-type protein to KD value with respect to KRAS)” value was “AA (a compound having 20 or more is denoted as AA)”. The “HRAS/KRAS (ratio of KD value with respect to GDP-bound HRAS wild-type protein to KD value with respect to KRAS)” value in test [3] is “A (a compound having 10 or more and less than 20 is denoted as A)”.
For `CCC[C@H]1C(=O)N[C@@H]([C@@H](C)CC)C(=O)N(C)CC(=O)N(C)[C@H]2C/C=C\CCN(C2=O)[C@@H](Cc2ccc(C)cc2)C(=O)N(C)CC(=O)N[C@@H](CCc2ccc(Cl)c(Cl)c2)C(=O)N2CCCCC[C@H]2C(=O)NC2(CC(C)(C)C2)C(=O)N(C)[C@@H](C(CC)CC)C(=O)N(C)[C@H](C(=O)N(C)C)CC(=O)N1C` [PP2962], the Kd in test [1] (setting [4]) came to 1.2 nM. In addition, in test [2], the “NRAS/KRAS (ratio of KD value with respect to GDP-bound NRAS wild-type protein to KD value with respect to KRAS)” value was “AA (a compound having 20 or more is denoted as AA)”. Further, in test [3], the “HRAS/KRAS (ratio of KD value with respect to GDP-bound HRAS wild-type protein to KD value with respect to KRAS)” value is “A (a compound having 10 or more and less than 20 is denoted as A)”.
For `CCC(CC)[C@H]1C(=O)N(C)[C@H](C(=O)N(C)C)CC(=O)N(C)[C@@H](COC)C(=O)N[C@@H]([C@@H](C)CC)C(=O)N(C)CC(=O)N(C)[C@H]2C/C=C\CCN(C2=O)[C@@H](Cc2ccc(C)cc2)C(=O)N(C)CC(=O)N[C@@H](CCc2cc(F)c(C(F)(F)F)c(F)c2)C(=O)N2CC3(CC3)C[C@H]2C(=O)NC2(CC(C)(C)C2)C(=O)N1C` [PP2963], in test [1] (setting [4]), the Kd was found to be 0.39 nM. The “NRAS/KRAS (ratio of KD value with respect to GDP-bound NRAS wild-type protein to KD value with respect to KRAS)” value in test [2] is “AA (a compound having 20 or more is denoted as AA)”. Also, the “HRAS/KRAS (ratio of KD value with respect to GDP-bound HRAS wild-type protein to KD value with respect to KRAS)” value in test [3] was “A (a compound having 10 or more and less than 20 is denoted as A)”.
Take `CCC[C@H]1C(=O)N[C@@H]([C@@H](C)CC)C(=O)N(C)CC(=O)N(C)[C@H]2C/C=C\CCN(C2=O)[C@@H](Cc2ccc(C(F)(F)F)cc2)C(=O)N(C)CC(=O)N[C@@H](CCc2ccc(C(F)(F)F)c(Cl)c2)C(=O)N2CCCCC[C@H]2C(=O)NC2(CC(C)(C)C2)C(=O)N(C)[C@@H](C(CC)CC)C(=O)N(C)[C@H](C(=O)N(C)C)CC(=O)N1C` [PP2964]: the Kd in test [1] (setting [4]) is 0.85 nM. For the same compound, in test [2], the “NRAS/KRAS (ratio of KD value with respect to GDP-bound NRAS wild-type protein to KD value with respect to KRAS)” value was “AA (a compound having 20 or more is denoted as AA)”. For the same compound, the “HRAS/KRAS (ratio of KD value with respect to GDP-bound HRAS wild-type protein to KD value with respect to KRAS)” value in test [3] is “A (a compound having 10 or more and less than 20 is denoted as A)”.
On to `CCC(CC)[C@H]1C(=O)N(C)[C@H](C(=O)N(C)C)CC(=O)N(C)[C@@H](COC)C(=O)N[C@@H]([C@@H](C)CC)C(=O)N(C)CC(=O)N(C)[C@H]2C/C=C\CCN(C2=O)[C@@H](Cc2ccc(C(F)(F)F)cc2)C(=O)N(C)CC(=O)N[C@@H](CCc2ccc(C(F)(F)F)c(Cl)c2)C(=O)N2CC3(CC3)C[C@H]2C(=O)NC2(CC(C)(C)C2)C(=O)N1C` [PP2965], for which, in test [1] (setting [4]), the Kd was 0.47 nM. Also, the “NRAS/KRAS (ratio of KD value with respect to GDP-bound NRAS wild-type protein to KD value with respect to KRAS)” value in test [2] is listed as “AA (a compound having 20 or more is denoted as AA)”. Moreover, the “HRAS/KRAS (ratio of KD value with respect to GDP-bound HRAS wild-type protein to KD value with respect to KRAS)” value in test [3] was “A (a compound having 10 or more and less than 20 is denoted as A)”.
Turning to `CCC[C@H]1C(=O)N[C@@H]([C@@H](C)CC)C(=O)N(C)CC(=O)N(C)[C@H]2C/C=C\CCN(C2=O)[C@@H](Cc2ccc(C(F)(F)F)cc2)C(=O)N(C)CC(=O)N[C@@H](CCc2ccc(C(F)(F)F)c(OC)c2)C(=O)N2CCCCC[C@H]2C(=O)NC2(CC(C)(C)C2)C(=O)N(C)[C@@H](C(CC)CC)C(=O)N(C)[C@H](C(=O)N(C)C)CC(=O)N1C` [PP2968], in test [1] (setting [4]), the dissociation constant (Kd) worked out at 0.55 nM. The “NRAS/KRAS (ratio of KD value with respect to GDP-bound NRAS wild-type protein to KD value with respect to KRAS)” value in test [2] is listed as “AA (a compound having 20 or more is denoted as AA)”. Also, the “HRAS/KRAS (ratio of KD value with respect to GDP-bound HRAS wild-type protein to KD value with respect to KRAS)” value in test [3] was “A (a compound having 10 or more and less than 20 is denoted as A)”.
Turning to `CCC[C@H]1C(=O)N[C@@H]([C@@H](C)CC)C(=O)N(C)CC(=O)N(C)[C@H]2C/C=C\CCN(C2=O)[C@@H](Cc2ccc(C(F)(F)F)cc2)C(=O)N(C)CC(=O)N[C@@H](CCc2ccc(C(F)(F)F)c(Cl)c2)C(=O)N2C[C@H](OCC)C[C@H]2C(=O)NC2(CC(C)(C)C2)C(=O)N(C)[C@@H](CC(C)(C)C)C(=O)N(C)[C@H](C(=O)N(C)C)CC(=O)N1C` [PP2969], the Kd in test [1] (setting [4]) worked out at 0.073 nM. Also, the “NRAS/KRAS (ratio of KD value with respect to GDP-bound NRAS wild-type protein to KD value with respect to KRAS)” value in test [2] is listed as “AA (a compound having 20 or more is denoted as AA)”. Besides, in test [3], the “HRAS/KRAS (ratio of KD value with respect to GDP-bound HRAS wild-type protein to KD value with respect to KRAS)” value was “A (a compound having 10 or more and less than 20 is denoted as A)”.
As for `CCC[C@H]1C(=O)N[C@@H](C2CCCC2)C(=O)N(C)CC(=O)N(C)[C@H]2C/C=C\CCN(C2=O)[C@@H](Cc2ccc(C(F)(F)F)cc2)C(=O)N(C)CC(=O)N[C@@H](CCc2ccc(C(F)(F)F)c(Cl)c2)C(=O)N2C[C@H](OCC)C[C@H]2C(=O)NC2(CC(C)(C)C2)C(=O)N(C)[C@@H](CC(C)(C)C)C(=O)N(C)[C@H](C(=O)N(C)C)CC(=O)N1C` [PP2971], in test [1] (SPR, Single Cycle Kinetics), the Kd turned out to be 0.19 nM. For the same compound, the “NRAS/KRAS (ratio of KD value for NRAS to KD value for KRAS)” value in test [2] is “A (a compound having 10 or more and less than 20 is denoted as A)”. For the same compound, the “HRAS/KRAS (ratio of KD value for HRAS to KD value for KRAS)” value in test [3] was “A (a compound having 10 or more and less than 20 is denoted as A)”.
Turning to `CCC[C@H]1C(=O)N[C@@H]([C@@H](C)CC)C(=O)N(C)CC(=O)N(C)[C@H]2C/C=C\CCN(C2=O)[C@@H](Cc2ccc(C(F)(F)F)cc2)C(=O)N(C)CC(=O)N[C@@H](CCc2ccc(C(F)(F)F)c(Cl)c2)C(=O)N2C[C@H](OCC)C[C@H]2C(=O)NC2(CC(C)(C)C2)C(=O)N(C)[C@@H]([C@@H](C)CC)C(=O)N(C)[C@H](C(=O)N(C)C)CC(=O)N1C` [PP2973], in test [1] (SPR, Single Cycle Kinetics), the Kd is 0.18 nM. Moreover, the “NRAS/KRAS (ratio of KD value for NRAS to KD value for KRAS)” value in test [2] is “A (a compound having 10 or more and less than 20 is denoted as A)”. Moreover, in test [3], the “HRAS/KRAS (ratio of KD value for HRAS to KD value for KRAS)” value was “A (a compound having 10 or more and less than 20 is denoted as A)”.

The term Kd denotes the constant that tells how readily two partners part at equilibrium.
